Results published in publication PMC8292346, “Dysfunction of the key ferroptosis-surveilling systems hypersensitizes mice to tubular necrosis during acute kidney injury” (Nature Communications, 2021).
“And” between values parts separate entries of the source, which are not always exact repeats. Equal entries are not always repeated. Where two headings read alike, the source gives them in different places. Each block holds one compound with its values, some of them ahead of it.

How the values were obtained:
HT1080 cells [1] = test: Ferroptosis inducers (FINs)/ferroptocide, 7-AAD/annexin V flow cytometry; assay type: cell-based, human
NIH3T3 cells [2] = test: as above; assay type: cell-based, murine; conditions: NIH3T3, 10 µM FIN56 24 h, alone (DMSO) or with Fer-1 1 µM, Nec-1s 30 µM, Nec-1f 30 µM
Method: (§1) To induce necroptosis in a human cell line, HT29 cells were stimulated at the indicated time points with 20 ng/ml human TNFα (Biolegend), 1 μM SMAC-mimetics (Birinapant, Chemietek), and 20 μM zVAD-fmk (Selleckchem, herein referred to as zVAD). For the induction of necroptosis in NIH3T3 cells, cells were incubated with 20 ng/ml TNF-α and 20 μM zVAD for indicated time points. […] Cells were seeded in six-well plates or petri dishes. […] After indicated time points, cells were collected and prepared for flow cytometry, immunoblotting, and/or LDH release assays.
(§2) Cells were harvested and the pellets were washed twice in PBS and stained with 5 μl of 7-AAD (BD Biosciences) and 5 μl of annexin-V-FITC (BD Biosciences) added to 100 μl annexin-V binding buffer (BD Biosciences). After 15 min, cells were recorded on the LSRII with the FACS Diva 6.1.1 software (BD Biosciences) and subsequently analyzed with the FlowJo v10 software (Tree Star).

HT1080 cells [3] = test: CellTiter-Glo luminescent cell viability assay (ATP), dose-response; assay type: cell-based, human
Method: Cells were plated in an opaque-walled 96-well plate and treatment with ferroptosis inducers and/or ferroptosis inhibitors was initiated 24 h later. […] Here, the reaction agent was directly added to the wells, mixed on an orbital shaker for 2 min, and then incubated at room temperature for 10 min. The luminescence was detected using a Promega GloMax® instrument.

[4] = system: Mouse cortical tubule cells (MCT); test: FINs/ferroptocide, 7-AAD/annexin V flow cytometry; assay type: cell-based; conditions: MCT, alone (DMSO) or with Fer-1 1 µM, Nec-1s 30 µM, Nec-1f 30 µM
Method: as §1, §2

CD10-135 cells = test: FINs/ferroptocide, LDH release assay; assay type: cell-based, human; parameters: LDH release: unit not given here; conditions: Nec-1f 30 µM
[5] = system: primary murine tubular cells; test: RSL3-induced LDH release of primary kidney tubular cells; assay type: cell-based; conditions: primary kidney tubular cells, RSL3 14 h, alone (DMSO) or with Fer-1 or Nec-1f 30 µM
Method: The LDH release of cells or of freshly isolated kidney tubules was measured according to manufacturers’ instructions at indicated time points. In brief, an aliquot of the supernatant was taken and Lysis Solution was added for 45 min to induce maximal LDH release before another aliquot of the supernatant was taken. Subsequently, the supernatants were incubated with CytoTox 96® Reagent for 15 min protected from light at room temperature before adding Stop Solution. Absorbance was measured at 490 nm.
Generation, cell culture, and induction of cell death in primary murine tubular cells. Murine tubular cells were generated by outgrowth from isolated renal tubules (see above). Primary murine tubules were placed in six-well plates containing Dulbecco’s Modified Eagle Medium F-12 Nutrient Mixture without phenol red (DMEM/F12, Thermo Fisher), supplemented with 0.01 mg/ml recombinant human insulin, 5.5 μg/ml human transferrin, 0.005 μg/ml Na2SeO3 (ITS without linoleic acid, Sigma Aldrich), 50 nM hydrocortisone, 100 U/ml penicillin, and 100 μg/ml streptomycin (Pen/Strep, Thermo Fisher). After two days, the outgrown primary murine tubular cells were washed with PBS and a fresh medium was added. When the number of primary murine tubular cells reached approximately 50% confluence, the cells were removed from the six-well plates using Trypsin-EDTA (Thermo Fisher), washed with medium and a Ficoll Paque Plus (Sigma Aldrich) gradient was performed to remove any dead cells, and debris from the murine renal tubules. Cells were washed twice with PBS and seeded in six-well plates with medium. Once the number of grown cells reached approximately 50% confluence, they were washed with PBS and treated with type 2 FIN: RSL3 (also see Supplementary Table 2 for details). After 14 h, medium and cells were collected and prepared for LDH release assay. Images of the treated primary murine tubular cells were obtained using a 20×/0.30 PH1 objective on a Leica DMi1 microscope.

[6] = both, microsomes, 2 µM, pH 7.4
NIH3T3 cells [7] = test: Ferroptosis inducers (FINs)/ferroptocide, 7-AAD/annexin V flow cytometry; assay type: cell-based, murine; conditions: NIH3T3, 5 µM erastin 24 h, alone (DMSO) or with Fer-1 1 µM, Nec-1s 30 µM, Nec-1f 30 µM
[8] = Stability in human plasma; assay type: in vitro ADME; conditions: 1 µM, 37 °C
Method: Plasma stability is defined as the percentage of parent compound remaining in plasma over the time. Here, incubations were carried out in 5 aliquots of 70 µl each (one for each time point), in duplicates. […] The percentage of the test compounds remaining after incubation in plasma and their half-lives (T1/2) was calculated.

Compound: O=S(=O)(NC1CCCCC1)c1ccc2c(c1)C(=NO)c1cc(S(=O)(=O)NC3CCCCC3)ccc1-2 [FIN56]
Induction of ferroptosis (HT1080 cells [1]; HT1080): does not effectively drive ferroptosis | double-negative events (7-AAD/annexin V) (HT1080 cells [1]; HT1080, 10 µM FIN56 24 h, alone (DMSO) or with Fer-1 1 µM, Nec-1s 30 µM, Nec-1f 30 µM): 85.5% and 85.1% and 86% | double-negative events (7-AAD/annexin V) (HT1080 cells [1]; HT1080, FIN56 10 µM, 24 h): 95% and 96% and 94% | double-negative events (7-AAD/annexin V) (HT1080 cells [1]; HT1080, FIN56 10 µM, 48 h): 92% and 90% and 74% | double-negative events (7-AAD/annexin V) (HT1080 cells [1]; HT1080, FIN56 20 µM, 24 h): 92% and 93% | double-negative events (7-AAD/annexin V) (HT1080 cells [1]; HT1080, FIN56 20 µM, 48 h): 93% and 92% and 89% and 71% | double-negative events (7-AAD/annexin V) (HT1080 cells [1]; HT1080, FIN56 50 µM, 24 h): 85% and 92% and 93% | double-negative events (7-AAD/annexin V) (HT1080 cells [1]; HT1080, FIN56 50 µM, 48 h): 83% and 87% and 78% and 65% | double-negative events (7-AAD/annexin V) (HT1080 cells [1]; HT1080, FIN56 100 µM, 24 h): 85% and 86% and 80% | double-negative events (7-AAD/annexin V) (NIH3T3 cells [2]): 87.6% and 95% and 90.3% | ATP luminescence (CellTiterGlo) (HT1080 cells [3]; HT1080, inducer at 0.01 µM): 100% | ATP luminescence (CellTiterGlo) (HT1080 cells [3]; HT1080, inducer at 0.1 µM): 100% | ATP luminescence (CellTiterGlo) (HT1080 cells [3]; HT1080, inducer at 0.5 µM): 100% | ATP luminescence (CellTiterGlo) (HT1080 cells [3]; HT1080, inducer at 1 µM): 100% | double-negative events (7-AAD/annexin V) ([4]; 10 µM FIN56 24 h): 96.5% and 90.7% and 88.5% | LDH release (CD10-135 cells; CD10-135, FIN56 alone (FIN) or with Fer-1, Nec-1s): 81.45 and 58.7091 and 60.5407

Compound: CC1(CCO)CC2(CCC(C(C)(C)C)CC2)OO1 (stereo not drawn) [FINO2]
ATP luminescence (CellTiterGlo) (HT1080 cells [3]; HT1080, inducer at 0.01 µM): 100% | ATP luminescence (CellTiterGlo) (HT1080 cells [3]; HT1080, inducer at 0.1 µM): 100% | ATP luminescence (CellTiterGlo) (HT1080 cells [3]; HT1080, inducer at 0.5 µM): 100% | ATP luminescence (CellTiterGlo) (HT1080 cells [3]; HT1080, inducer at 1 µM): 100% and 53.72% | ATP luminescence (CellTiterGlo) (HT1080 cells [3]; HT1080, inducer at 50 µM): 0.7403% and 0.06% | ATP luminescence (CellTiterGlo) (HT1080 cells [3]; HT1080, inducer at 100 µM): 0% and 0.26% and 0.2% and 0.08% | ATP luminescence (CellTiterGlo) (HT1080 cells [3]; HT1080, inducer at 200 µM): 0% and 0.3058% and 0.04% | LDH release (CD10-135 cells; CD10-135, FINO2 alone (FIN) or with Fer-1, Nec-1s): 73.83 and 38.4304 and 67.2452

Compound: COC(=O)c1ccc([C@@H]2c3[nH]c4ccccc4c3C[C@@H](C(=O)OC)N2C(=O)CCl)cc1 [RSL3]
double-negative events (7-AAD/annexin V) (HT1080 cells [1]; HT1080, 1.13 µM RSL3 6 h, alone (DMSO) or with Fer-1 1 µM, Nec-1s 30 µM, Nec-1f 30 µM): 61% and 47.8% and 51.8% and 65.7% | ATP luminescence (CellTiterGlo) (HT1080 cells [3]; HT1080, inducer at 0.01 µM): 100% | ATP luminescence (CellTiterGlo) (HT1080 cells [3]; HT1080, inducer at 0.1 µM): 100% | ATP luminescence (CellTiterGlo) (HT1080 cells [3]; HT1080, inducer at 0.113 µM): 100% | ATP luminescence (CellTiterGlo) (HT1080 cells [3]; HT1080, inducer at 0.5 µM): 30.56% and 28.07% and 28.8% | ATP luminescence (CellTiterGlo) (HT1080 cells [3]; HT1080, inducer at 1 µM): 18.36% and 19.43% and 14.93% | ATP luminescence (CellTiterGlo) (HT1080 cells [3]; HT1080, inducer at 1.13 µM): 55.71% and 77.56% and 64% | ATP luminescence (CellTiterGlo) (HT1080 cells [3]; HT1080, inducer at 5 µM): 11.16% and 17.99% and 22.07% | LDH release (CD10-135 cells; CD10-135, RSL3 alone (FIN) or with Fer-1, Nec-1s): 53.16 and 45.5353 | LDH release [5]: 91.18% and 51.15% and 48.12% and 50.73% and 54.44%

Human microsomal stability, parent compound remaining ([6]; 0 h): 100% | Human microsomal stability, parent compound remaining ([6]; 7 min): 62% | Human microsomal stability, parent compound remaining ([6]; 0.25 h): 26% | Human microsomal stability, parent compound remaining ([6]; 25 min): 6% | Human microsomal stability, parent compound remaining ([6]; 40 min): 2%
Compound: O=C(O)Cc1ccccc1Nc1c(Cl)cccc1Cl [diclofenac, reference compound]

Compound: CCOc1ccccc1-n1c(C(C)N2CCN(C(=O)COc3ccc(Cl)cc3)CC2)nc2ccccc2c1=O (stereo not drawn) [erastin]
ATP luminescence (CellTiterGlo) (HT1080 cells [3]; HT1080, inducer at 0.01 µM): 100% | ATP luminescence (CellTiterGlo) (HT1080 cells [3]; HT1080, inducer at 0.1 µM): 100% | ATP luminescence (CellTiterGlo) (HT1080 cells [3]; HT1080, inducer at 0.5 µM): 90.0281% and 100% | ATP luminescence (CellTiterGlo) (HT1080 cells [3]; HT1080, inducer at 1 µM): 57.4401% and 100% | ATP luminescence (CellTiterGlo) (HT1080 cells [3]; HT1080, inducer at 100 µM): 3.949% | ATP luminescence (CellTiterGlo) (HT1080 cells [3]; HT1080, inducer at 200 µM): 12.3673% and 20.98% | double-negative events (7-AAD/annexin V) ([4]; 5 µM erastin 24 h): 51.9% and 85.2% and 80.4% and 71% | LDH release (CD10-135 cells; CD10-135, erastin alone (FIN) or with Fer-1, Nec-1s): 92.68 and 85.398 and 91.0128 | double-negative events (7-AAD/annexin V) (NIH3T3 cells [7]): 10.4% and 3.36% and 6.36% and 2.66%

Compound: C[C@@H]1CC[C@@]23C[C@H](O)C(=O)[C@@]2(O)[C@]1(C)[C@H](OC(=O)CCl)C[C@@H](C1=CCn2c(=O)n(-c4ccccc4)c(=O)n2C1)[C@@H]3C [ferroptocide]
ATP luminescence (CellTiterGlo) (HT1080 cells [3]; HT1080, inducer at 0.01 µM): 100% | ATP luminescence (CellTiterGlo) (HT1080 cells [3]; HT1080, inducer at 0.1 µM): 100% | ATP luminescence (CellTiterGlo) (HT1080 cells [3]; HT1080, inducer at 0.5 µM): 67.8646% and 100% | ATP luminescence (CellTiterGlo) (HT1080 cells [3]; HT1080, inducer at 50 µM): -0.02481% and 0.12% | ATP luminescence (CellTiterGlo) (HT1080 cells [3]; HT1080, inducer at 100 µM): 0% and 0.4% and -1.103% and 0.1% | ATP luminescence (CellTiterGlo) (HT1080 cells [3]; HT1080, inducer at 200 µM): 0% and -0.7765% and 0.13% | LDH release (CD10-135 cells; CD10-135, ferroptocide alone (FIN) or with Fer-1, Nec-1s): 93.9 and 97.7396

Human plasma stability, parent compound remaining ([8]; 0 min): 100% | Human plasma stability, parent compound remaining ([8]; 20 min): 65% | Human plasma stability, parent compound remaining ([8]; 40 min): 31% | Human plasma stability, parent compound remaining ([8]; 60 min): 16% | Human plasma stability, parent compound remaining ([8]; 120 min): 2%
Compound: CC(C)[N+](C)(CCOC(=O)C1c2ccccc2Oc2ccccc21)C(C)C [propantheline, reference compound]
